US5543410A, “Pharmacological use of phthaloylhydrazide derivatives; combination and application thereof” (L.I.M.A.D. Limited, priority 1993, dated 1996)
Read-outs that look alike come from different tables or passages of the source.

What was measured:
[1] = model systems (micellar phase); times less
Method: (§1) In models corresponding to acute purulent inflammation (wounds) caused by inoculation of a suspension of pathogenic microbes, such as E. coli and S. aureus, pentane production within air exhaled by the respective animals was measured.

[2] = system: acute purulent inflammation (wounds) caused by E. coli and S. aureus; details: single administration
Method: as §1

[3] = system: peroxidation of blood plasma
Method: as §1

[4] = pharmacokinetics, plasma half-life; type: in vivo
[5] = metabolic products; type: in vivo; details: in vivo; read-out: fraction of compound decomposed into 5-aminophthalic acid, oxygen, and nitrogen
[6] = system: proctitis attributable to radiation therapy
Source text: B., a patient who was […], complained of burning sensations in the anus, along with frequent and painful urination, after having received radiation therapy for a period of forty-five days. During a rectosigmoidoscopy examination, intense edema and contact hemorrhaging within the rectal mucosae were observed above the tumor. The diagnosis was: proctitis and cystitis arising from radiation therapy. On account of a lack of specific therapeutic measures, the drug was prescribed for the patient according to a dose of 100 mg per day.

[7] = system: AIDS
Method: Treatment began with intramuscular administration of 100 mg doses of the drug, once daily.
The daily dosage of the drug was then increased to 400 mg.

[8] = system: suppuration of a paracolostomy incision
Method: The patient cited pain in the region affected by infiltration, and an increase in body temperature was observed. A suppository containing 200 mg of the drug was applied to the incision. […] An identical dose of the drug was administered again twelve hours later.

[9] = system: non-specific ulcerative colitis and Crohn's disease
Method: These patients complained of periodic worsening of their symptoms over periods of three to five years.
100 mg per day of the drug was administered intravenously to these patients for three days.
On subsequent days, intramuscular administration of the drug was provided once daily, along with a 100 mg rectal suppository.

[10] = general pharmacological / toxicological assessment; type: in vivo
[11] = in vivo
[12] = system: pregnant female rats; details: 60 mg/kg single dose, intraperitoneal
Method: Tests pertaining to teratogenicity and embryotoxicity were performed upon fifty-eight pregnant female rats. A single dose (60 mg/kg) was injected intraperitoneally on the first, third, seventh, tenth, fourteenth, or seventeenth days of gestation. These rats were decapitated on the twenty-first day of gestation, and uteri and fetuses were examined.

[13] = system: guinea pigs
[14] = system: convulsions caused by Corazolum and strychnine; details: 30 and 60 mg/kg
[15] = system: neutrophils; details: in vivo (whole blood), NST test
[16] = system: macrophages; details: in vitro and in vivo; SV-40 affected cancer cells, glioma cultures
[17] = system: tumor necrosis factor (TNF)
[18] = system: Salmonella typhinurium endotoxin
Method: These experiments were performed upon rabbits. Salmonella typhinurium endotoxin which had been purified by Bolvin's method was used in doses of 1 mg/kg according to body weight.
During the second series of experiments, the drug was administered intravenously in doses of 15 mg/kg according to body weight when clinical manifestations appeared (thirty to forty minutes after the commencement of the experiment). […] During the third series of experiments, the drug was administered five minutes after endotoxin inoculation.

[19] = system: autoimmune diseases
Source text: Nevertheless, repeated administration of the drug is required in order to accomplish this objective.

[20] = system: malignant tumors
[21] = system: proctosigmoiditis
Source text: Treatment was provided for nine patients affected by proctosigmoiditis; their ages were between forty and fifty-five years. These patients had complained of irregular defecation, protrusion of the mucosae from the anus, and minor pain in the ileum, on the left side.
During visual examination of the intestine, it was observed that the mucosae of the rectal and sigmoid portions of the colon were affected by edema. In addition, images of the capillary network were blurred, and a fibrous film was present within limited segments. The drug was administered to these patients in the form of rectal suppositories, in doses of 100 mg per day, subsequent to enemas.

[22] = system: perineal cutaneous melanoma
Method: Localized excision of the tumor was performed, and the group of lymph nodes in the left inguinal region was removed.
This phenomenon was indicative of the onset of recurrence of the tumor. Intramuscular administration of the drug in 100 mg doses was provided on alternating days.
Beginning on the twentieth day, the drug was administered in 100 mg intramuscular doses every day.

[23] = system: acute intestinal infections
Method: 200 mg of the drug in an isotonic aqueous solution was administered to this patient.

[24] = system: dermatitis of unknown etiology
Method: The patient was treated for fourteen days.
The affected cutaneous areas were treated three times daily with a water-soluble emulsion containing 30 mg of the drug, and, on alternating days, suppositories containing 50 mg of the drug (5 mg/kg according to weight) were administered rectally.

[25] = system: erysipelas; test: erysipelas
Method: During the patient's hospitalization, their condition was determined to be of moderate severity. […] This area was painful and warm when it was palpated. General loss of strength and a higher body temperature, up to 38.6° C., were also observed.
The respective compound was applied to the affected area of the patient's skin in the form of a 1 percent ointment. Suppositories containing 100 mg of the drug were prescribed at the same time.
Subsequently, the patient was treated with the drug in the form of suppositories for five days.
Objective indications included: a congested segment of skin on the front surface of the leg; this area protruded from the surface and it was painful when palpated. Body temperature: 37.8° C. The patient was experiencing generally disagreeable sensations, and intense pain in the vicinity of the inflamed area.
A 4 percent solution of the drug within a 20 percent DMSO solution was applied to the affected cutaneous area.

[26] = system: TA 100, TA 102, and TA 97 S. typhi strains; test: Ames' bacterial mutagenicity test; details: 0.01 mg/ml to 2 mg/ml, rat liver microsome activation
[27] = passage through living membranes / microbial membranes
[28] = 100 mg suppositories morning and evening
[29] = 15 mg/kg intravenous, when clinical manifestations appeared
[30] = 100 mg intramuscular on alternating days
[31] = 1 percent ointment plus 100 mg suppositories

Nc1cccc2c(=O)[nH][nH]c(=O)c12
antioxidant effectiveness less than previously identified antioxidants [1]: thirty to fifty | pentane level attained [2]: until a normal level was attained | time to reduction in pentane in exhaled air [2]: thirty to sixty | antioxidant effectiveness versus known antioxidants ([3]; blood plasma): significantly superior to known antioxidants such as dibunol, alphatocopherol, and superoxydismutaze (SOD) | increase in retardation constant for peroxidation of blood plasma ([3]; two to five minutes after administration): ten to twelve | duration of activity in hydrophobic phase of living membranes ([4]; in vivo): remains active for several hours | half-life ([4]; intramuscular and rectal): forty to sixty | half-life within blood plasma ([4]; intravenous): five to fifteen | metabolised [5]: > 90% | clinical effect ([6]; 100 mg per day, three days): absence of any significant clinical effect | time to decrease of anal burning and painful urination [6, 28]: one | time until pain and burning no longer present [6, 28]: third | time to normal urination ([6]; after the dosage was increased): fifth | rectosigmoidoscopy finding ([6]; ten days later): regeneration of the capillary network within the rectal mucosae was observed | therapeutic effects ([7]; 100 mg intramuscular once daily, three days): no therapeutic effects had been observed | complications of AIDS ([7]; 5 to 15 mg/kg daily, extended period): significant prevention or reduction of complications | further symptoms ([7]; continued daily administration): further symptoms of the disease did not appear | therapeutic action ([7]; daily dose doubled): still not observable | effectiveness of standard doses ([7]; standard doses for inflammatory diseases): limited effectiveness | time to decline of temperature ([8]; 200 mg suppository): Six | time until pain ceased ([8]; 200 mg suppository applied to incision): twenty to thirty | wound ([8]; six days of treatment): the wound was wholly devoid of pus | edema within soft tissues ([8]; twenty-one hours after commencement): had decreased significantly | time until abdominal and joint pain lessened ([9]; 100 mg per day intravenous): Thirty | frequency of defecation ([9]; first three days): frequency of defecation was reduced | frequency of defecation ([9]; fourteenth day): once or twice | rectosigmoidoscopy finding ([9]; in vivo): did not reveal the presence of pus or blood, although traces of an inflammatory process were observed within mucous membranes | frequency of defecation ([9]; sixth day): two or three | pain and skin eruptions ([9]; sixth day): They were no longer experiencing pain, their skin eruptions had disappeared | toxicity ([10]; acceptable dosages): wholly non-toxic | level of pharmacological activity ([10]; determined experimentally): higher level of pharmacological activity | CL renal [11]: 50 to 80 mL/min | fetal abnormalities [12]: No fetal abnormalities were found | erythema at the site of administration ([13]; even large doses): Erythema was not encountered | indications of allergies ([13]; subcutaneous or oral administration): no indications of allergies were observed | prevention of convulsions [14]: did not prevent convulsions | rate at which superoxide radicals formed [15]: an increase in the rate at which superoxide radicals formed | transformation of macrophages into killer cells [16]: transformation of a certain portion of macrophages into killer cells | action of TNF in mutated cells [17]: intensifies the action of the tumor necrosis factor (TNF) in mutated cells | diarrhea [18, 29]: diarrhea ceased completely | time to reduction of intoxication symptoms [18, 29]: five to ten | alleviation of intoxication symptoms and diarrhea ([18]; 25 mg/kg): complete alleviation of intoxication symptoms and diarrhea | intoxication symptoms (conclusion) ([18]; 15 to 25 mg/kg): prevent or eliminate intoxication symptoms | alleviation of symptoms ([18]; drug five minutes after endotoxin, third series): partial alleviation of symptoms | patients in whom subsequent development of pathological processes was prevented ([19]; after an initial phase of treatment): 90% | principal symptoms ([19]; suppositories, intravenous or intramuscular, repeated): allows alleviation of the principal symptoms of these diseases | expansion of malignant tumors ([20]; increasing doses and frequency): ensures inhibition of the expansion of malignant tumors | tumor dimensions and general condition ([20]; three patients): favorable results represented by reduction of the dimensions of tumors and by an improvement in their general condition | effect in combination with radiation therapy ([20]; total dose of 60 to 90 g): the effect upon its action is intensified | time until symptoms and pain disappeared ([21]; 100 mg per day rectal suppositories): one | complaints ([21]; by the seventh day): the patients no longer complained of symptoms | rectosigmoidoscopy finding ([21]; checkups): renewal of normal conditions was observed within the rectal mucosae and within the sigmoid colon | infiltration in the region of the postoperative scar ([22]; 100 mg intramuscular every day, checkup thirty days later): disappearance of infiltration in the region of the postoperative scar was observed | abnormal salivation [22, 30]: On the third day after the commencement of treatment, abnormal salivation began | vomiting and diuresis [22, 30]: vomiting occurred on the fourth day, along with an increase in diuresis | cessation of symptoms (salivation, vomiting, diuresis) ([22]; in vivo): gradually ceased on the thirteenth and fourteenth days | time to improvement, decrease in abdominal pain, cessation of diarrhea ([23]; 200 mg in isotonic aqueous solution): Forty to fifty | fecal cultures for bacillary dysentery and Salmonella ([23]; in vivo): negative | symptoms of intoxication ([23]; one day after admission): all of the symptoms of intoxication had disappeared | time to completed epithelization ([24]; 30 mg emulsion three times daily, 50 mg suppositories on alternating days): fourteenth | affected cutaneous areas ([24]; after the second day): began to become drier | time until congestion and edema had diminished [25, 31]: twenty-four | time until pain became less intense [25, 31]: five to six | difficulties ([25]; by the end of the sixth day): the patient no longer cited difficulties | inhibitory or mutagenic activity [26]: did not possess inhibitory or mutagenic activity | passage through the hydrophobic phase of living membranes [27]: easily passing through the hydrophobic phase of living membranes
